Results taken from patent US7521540B2, “CYR61 compositions and methods” (Munin Corporation, priority 1996, dated 2009).
“And” between values parts separate entries of the source, which are not always exact repeats. Equal entries are not always repeated. Each block holds one substance with its values, some of them ahead of it.

What was measured:
[1] = tested on: Limb mesenchymal cells; settings: 10 μg/ml, literature; cited from earlier work
[2] = tested on: 1064SK primary human foreskin fibroblasts; test: Fibroblast adhesion assay (methylene blue, A620); type: cell-based
Experimental: The ability of Cyr61 to mediate cell adhesion in normal fibroblasts was investigated. Microtiter wells were coated with purified recombinant Cyr61 protein, and 1064SK primary human foreskin fibroblasts were allowed to adhere under serum-free conditions. […] 50 μl cell suspensions were plated on microtiter wells coated with varying concentrations (0.5-5.0 μg/ml) of Cyr61 protein. After incubation at 37° C. for 30 minutes, adherent cells were fixed and stained with methylene blue.
In another experiment, microtiter wells were coated with either BSA, Cyr61 (2 μg/ml), or vitronectin (VN; 0.5 μg/ml) and blocked with affinity-purified anti-Cyr61 antibodies for one hour at 37° C. before 1064SK cells were plated.
The effects of divalent cations in cell adhesion to Cyr61 was also investigated. […] Data are means from triplicate determinations. […] Inhibition by Ca^2+ is characteristic of adhesion through some members of the β1 family of integrins, including receptors that bind type I collagen, laminin, and vitronectin (integrins α2β1, α6β1, and αVβ1) in fibroblasts, as well as the lymphocyte-specific integrin αLβ2.
The effects of RGD peptides on Cyr61-mediated fibroblast binding was tested by plating cells in wells coated with Cyr61 (2 μg/ml). Type I collagen (2 μg/ml) or vitronectin (0.5 μg/ml), 2 mM GRGDSP or GRGESP peptide was then added.
Cells were also pre-incubated with 40 μg/ml monoclonal antibodies against the integrin α5 or the integrin αV subunits at room temperature for 30 minutes, then plated on wells coated with Cyr61 (2 μg/ml), vitronectin (0.5 μg/ml) or fibronectin (FN, 1 μg/ml). […] The data are means, representative of three experiments.
The 1064 SK cells were also analyzed using the monoclonal antibody JBIA, which binds the β1 integrin subunit. Cells were pre-incubated with the antibody (50 μg/ml) before plating on microtiter wells coated with Cyr61 (2 μg/ml), Type I collagen (2 μg/ml), or vitronectin (0.5 μg/ml). […] Data are means, representative of three experiments.
To identify the specific β1 integrin that mediates fibroblast adhesion to Cyr61, the inhibitory effects of function-blocking monoclonal antibodies were tested against various integrin α subunits. […] The data are means, representative of at least three experiments.

[3] = tested on: Bovine aortic smooth muscle cells (BASM cells); test: Smooth muscle cell adhesion assay; type: cell-based
Experimental: Cell adhesion assays were also performed on smooth muscle cells. Bovine aortic smooth muscle cells (BASM cells) were subjected to the cell adhesion assay described above in the context of assaying fibroblasts. […] To identify particular integrin, receptors mediating the Cyr61 induction of BASM cell adhesion, antibody studies were conducted using anti-integrin antibodies recognizing specific integrins. […] Thus, integrin α6β1 mediates Cyr61-induced adhesion of smooth muscle cells. It is expected that Cyr61 polypeptides that include the heparan binding domain IV will induce adhesion of any mammalian smooth muscle cell.

[4] = tested on: fibroblasts; test: Peptide inhibition of cell adhesion to Cyr61, fibroblasts; type: cell-based; settings: Cyr61-coated wells
Source text: (§1) To localize the relevant domain still further, several overlapping peptides were synthesized. The peptides, each having a sequence set forth in one of SEQ ID NOS:33-38, show significant similarity to an ECM signaling molecule such as mouse Cyr61 (SEQ ID NO:2) or human Cyr61 (SEQ ID NO:4). These peptides were then separately tested for their capacities to inhibit Cyr61 adhesion to endothelial cells or fibroblasts. Peptides were separately added at various concentrations to Cyr61-coated wells containing endothelial cells or fibroblasts, as described above. The peptide designated TSP1 (SEQ ID NO:33) inhibited Cyr61 adhesion to endothelial cells or fibroblasts at concentrations of 25 μM or higher.

[5] = tested on: endothelial cells; test: Matrigel tubule formation assay; type: cell-based
Experimental: Endothelial cells interacting with Cyr61 require integrin αVβ3 for cell migration and cell survival. However, to form tubules in vitro in a matrigel, integrin α6β1 is required. Thus, the ability of TSP1 to inhibit tubule formation in vitro using a matrigel assay as described in Example 15 (and as known in the art, Davis et al., Exp. Cell Research 216:113-123 (1995), incorporated herein by reference in its entirety) was performed.

[6] = tested on: fibroblasts; test: Adhesion to immobilized peptides or GST-domain fusions, fibroblasts; type: cell-based; settings: no immobilized Cyr61
Source text: (§2) To further localize domains involved in angiogenesis, including endothelial cell migration, the coding regions for domains I, II and III of Cyr61 were separately fused to a coding sequence for glutathione S-transferase (GST), again using conventional technology. The individual fusion constructs were introduced into bacterial hosts, expressed, and purified with glutathione columns, using conventional techniques.
(§3) To confirm that the TSP1 peptide was inhibiting Cyr61 activity by directly interacting with the α6β1, integrin, TSP1 and the peptides collectively having SEQ ID NOS:34-38 were used in the aforementioned cell adhesion assay in the absence of immobilized Cyr61. In these assays, wells were coated with one of the peptides and the immobilized peptides were then separately exposed to either endothelial cells (resting or activated) or fibroblasts. […] None of the other tested peptides (having SEQ ID NOS:34-38, collectively) supported cell adhesion in these assays. However, it is expected that peptides comprising sequences from domain II (von Willebrand Factor domain) of Cyr61 will inhibit the interaction between Cyr61 and the αVβ3 integrin receptor, thereby inhibiting the participation of endothelial cells in the process of angiogenesis. […]

[7] = tested on: endothelial cells; test: Adhesion to immobilized peptides or GST-domain fusions, endothelial cells; type: cell-based; settings: no immobilized Cyr61
Source text: as §2, §3

[8] = tested on: endothelial cells; test: Peptide inhibition of cell adhesion to Cyr61, endothelial cells; type: cell-based
Source text: as §1
To determine if TSP1 was selectively inhibiting Cyr61 binding to […] or α6β1, two integrins found on endothelial cells that bind Cyr61, specific monoclonal antibody blocking studies were performed. These studies involved the separate addition of monoclonal antibody GoH3 (α6-specific, including α6β1; see Example 29) or LM609 ([…]; see Example 29) to cells prior to addition of the mixture to Cyr61-coated wells in the presence or absence of the peptide under study.

[9] = tested on: HUVE cells; test: HUVE cell attachment to murine Cyr61-coated plates; type: cell-based, human
Experimental: Another embodiment of the invention is directed to the use of Cyr61 to mediate cellular attachment to the extracellular matrix. Induction of cellular adhesion was investigated using murine Cyr61, fibronectin, and bovine serum albumin (BSA). Immunological 96-well plates (Falcon brand) were coated with 50 μl of 0.1% BSA in PBS at 4° C. in the presence of 0-30 μg/ml concentrations of murine Cyr61 or fibronectin. After two hours exposure to the coating solution, non-diluted immune or pre-immune antisera (30 μl/well), or affinity-purified anti-Cyr61 antibodies were added. For some wells, the coating mixture was adjusted to 10 mM DTT or 100 mM HCl. After 16 hours incubation, the coating solution was removed and the well surface was blocked with 1% BSA in phosphate-buffered saline (PBS) for 1 hour at room temperature. HUVE cells were plated in Ham's complete F12K medium [GIBCO-BRL, Inc.; Ham, Proc. Natl. Acacd. Sci. (USA) 53:786 (1965)] at 5×10^3-10^4 cells/well. Cycloheximide was added to 100 μg/ml immediately before plating and monensin was added to 1 μM 14 hours before plating. After a 2-hour incubation at 37° C., the wells were washed with PBS and attached cells were fixed and stained with methylene blue. The attachment efficiency was determined by quantitative dye extraction and measurement of the extract absorbance at 650 nm. Oliver et al., J. Cell. Sci. 92:513-518 (1989).

[10] = tested on: Limb mesenchymal cells; test: Limb bud mesenchymal cell attachment; type: cell-based, mouse; settings: within 1 hour of plating
Experimental: Cyr61, fibronectin (Gibco), or tenascin (Gibco) were diluted in 0.1% protease-free bovine serum albumin (BSA) in PBS with 0.5 mM PMSF, to a final concentrations of 10 or 50 μg/ml. A 10 μl drop/well was placed in a non-tissue culture treated 24-well plate (Corning), and incubated at room temperature for 2 hours. The wells were blocked with 1% BSA in PBS for 1 hour at room temperature, and rinsed with serum-free MEM (Modified Eagle's Medium). Limb mesenchymal cells, suspended at 5×10^5 cell/ml in serum-free MEM, were added at a volume of 400 μl/well, and incubated at 37° C., 5% CO2 for 1 or 3 hours. At each time point, the cell suspension was removed, the wells were rinsed with MEM and the remaining adherent cells were photographed.

[11] = tested on: endothelial cells; settings: thrombospondin on endothelial cells; fibronectin cell type not stated; cited from earlier work

level that detectably inhibited binding to Cyr61 ([2]; soluble, in cell suspension): 1 ng/mL
Substance: heparin
increase of chondrogenesis in micromass cultures [1]: 2 fold | levels having no effect on cell adhesion to fibronectin ([2]; fibronectin 1 μg/ml): up to 1000 μg/ml | level completely inhibiting cell adhesion to Cyr61 ([2]; soluble, in cell suspension): ≥ 0.1 µg/mL | effect of agent on Cyr61-induced BASM cell adhesion [3]: inhibited Cyr61-induced adhesion

Substance: H 2N-GQKCIVQTTSWSQCSKS-CO2H (H-GQKCIVQTTSWSQCSKS-OH; cysteine pairing not given here) [TSP1]
concentration inhibiting Cyr61 adhesion to fibroblasts [4]: ≥ 25 µM | tubule formation in matrigel [5]: inhibited tubule formation | adhesion of fibroblasts to immobilized peptide or fusion [6]: supported adhesion of endothelial cells and fibroblasts | adhesion of endothelial cells to immobilized peptide or fusion [7]: supported adhesion of endothelial cells and fibroblasts | concentration inhibiting Cyr61 adhesion to endothelial cells ([8]; Cyr61-coated wells): ≥ 25 µM | effect on Cyr61 binding to the α6β1 integrin ([8]; GoH3/LM609 blocking studies): inhibitied Cyr61 binding to the α6β1 integrin | effect on Cyr61 binding to αVβ3 ([8]; GoH3/LM609 blocking studies): did not inhibit Cyr61 binding to αVβ3

Substance: fibronectin
HUVE cell attachment, A650 ([9]; coating 1 μg/ml): 0.1 A650 | HUVE cell attachment, A650 ([9]; coating 30 μg/ml): 0.9 A650 | 1064SK adhesion to coated protein, nothing added ([2]; Cyr61 2, VN 0.5, Type I collagen 2, fibronectin 1, laminin 5 μg/ml): 0.72 A620 and 0.74 A620 | attachment morphology of limb mesenchymal cells [10]: attached uniformly and started to spread | concentration with chemotactic effect [11]: 1 to 30 µg/mL
